{"source": "paper PMC4526345", "about": "(Biochemistry, 2015)", "key": {"[1]": {"tested_on": "HDAC8", "details": "read-out: IC50 HDAC8; cited from earlier work"}, "[2]": {"target": "T1, HDAC8 (Homo sapiens, UniProt Q9BY41)", "T1 sequence (Q9BY41 1-377)": "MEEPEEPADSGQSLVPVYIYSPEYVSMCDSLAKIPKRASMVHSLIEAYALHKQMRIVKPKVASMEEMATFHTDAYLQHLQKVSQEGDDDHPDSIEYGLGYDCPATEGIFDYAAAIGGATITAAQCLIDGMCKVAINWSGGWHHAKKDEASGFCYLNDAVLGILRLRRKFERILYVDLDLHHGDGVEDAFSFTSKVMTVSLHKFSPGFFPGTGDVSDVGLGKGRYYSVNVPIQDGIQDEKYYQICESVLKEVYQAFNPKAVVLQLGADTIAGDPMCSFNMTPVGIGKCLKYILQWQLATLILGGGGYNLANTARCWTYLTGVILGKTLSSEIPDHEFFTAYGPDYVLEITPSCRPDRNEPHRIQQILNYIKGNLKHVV", "assay": "Deacetylation of N^8-acetylspermidine by HDAC8", "assay_type": "biochemical", "details": "overnight incubation with HDAC8; data not shown"}, "[3]": {"target": "Mycoplana ramosa APAH (Mycoplana ramosa, UniProt Q48935)", "sequence (Q48935 whole entry)": "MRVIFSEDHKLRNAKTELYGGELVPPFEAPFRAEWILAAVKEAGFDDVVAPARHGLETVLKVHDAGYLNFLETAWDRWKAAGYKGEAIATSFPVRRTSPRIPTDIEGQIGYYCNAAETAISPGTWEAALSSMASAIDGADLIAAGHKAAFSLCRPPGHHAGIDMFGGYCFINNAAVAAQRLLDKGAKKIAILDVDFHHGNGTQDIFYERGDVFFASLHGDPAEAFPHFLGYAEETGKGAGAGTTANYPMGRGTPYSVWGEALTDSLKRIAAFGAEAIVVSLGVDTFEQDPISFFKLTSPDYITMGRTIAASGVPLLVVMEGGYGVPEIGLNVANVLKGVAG", "assay": "APAH inhibition, fluorimetric Fluor-de-Lys assay", "assay_type": "biochemical", "details": "also evaluated after 30 and 60 min incubation times"}}}
{"compound": "largazole thiol", "values": [{"measurement": "IC50", "setting": "[1]", "value": 102, "unit": "nM"}]}
{"compound": "CC(=O)NCCCCNCCCN", "note": "[N^8-acetylspermidine]", "values": [{"measurement": "spermidine product formed by HDAC8", "setting": "[2]", "value": "does not yield any measurable spermidine product"}]}
{"compound": "Cl.NCCCCCCC(=O)NO", "note": "[Compound 6, 7-Amino-N-hydroxyheptanamide hydrochloride salt]", "values": [{"measurement": "time-dependent inhibition of APAH", "setting": "[3]", "value": "not observed"}]}
